Assay results taken from ChEMBL document CHEMBL1149754, “Synthesis and evaluation of a focused library of pyridine dicarbonitriles against prion disease” (Eur J Med Chem, 2008).

What was measured:
[1] = Inhibition of PrPSc formation in mouse SMB cells at 10 uM relative to control; type: functional
[2] = molecular target: Major prion protein (Homo sapiens) (UniProt P04156); assay: Binding affinity to human prion protein by surface plasmon resonance assay
[3] = molecular target: Major prion protein (Mus musculus) (UniProt P04925); assay: Binding affinity to mouse prion protein by surface plasmon resonance assay
[4] = Inhibition of PrPSc formation in mouse SMB cells; type: functional, cell-based
[5] = Toxicity against mouse SMB cells at 10 uM after 5 days by MTT assay; type: cell-based; conditions: 120 h
[6] = Inhibition of PrPSc formation in mouse SMB cells at 5 uM relative to control; type: functional
[7] = Inhibition of PrPSc formation in mouse SMB cells at 1 uM relative to control; type: functional
[8] = Inhibition of PrPSc formation in mouse SMB cells at 0.05 uM relative to control; type: functional
[9] = Inhibition of PrPSc formation in mouse SMB cells at 7.5 uM relative to control; type: functional
[10] = Toxicity against mouse SMB cells after 5 days by MTT assay; type: cell-based; conditions: 120 h

Major prion protein (Mus musculus), sequence (P04925 whole entry): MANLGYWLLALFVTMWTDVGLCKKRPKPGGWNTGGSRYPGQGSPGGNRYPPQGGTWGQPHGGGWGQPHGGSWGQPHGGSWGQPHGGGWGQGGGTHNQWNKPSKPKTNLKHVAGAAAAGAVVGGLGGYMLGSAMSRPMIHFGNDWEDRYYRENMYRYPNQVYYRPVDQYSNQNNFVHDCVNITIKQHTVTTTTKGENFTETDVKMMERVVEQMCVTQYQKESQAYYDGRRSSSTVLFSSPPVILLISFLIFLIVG

| SMILES | inhibition at 10 µM [1] | RUmax [2] | RUmax [3] | other results |
| --- | --- | --- | --- | --- |
| N#Cc1c(N)nc(Sc2ccc(O)cc2)c(C#N)c1-c1ccc(Cl)cc1 | 90% | – | – | – |
| N#Cc1c(N)nc(SCc2ccccc2)c(C#N)c1-c1cccc(O)c1 | 113% | 96.5% | 112% | – |
| N#Cc1c(N)nc(SCc2ccccc2)c(C#N)c1-c1ccc2c(c1)OCO2 | 79% | – | – | – |
| N#Cc1c(N)nc(Sc2cccc(O)c2)c(C#N)c1-c1ccc(Cl)cc1 | 73% | – | – | – |
| COC(=O)c1ccc(Sc2nc(N)c(C#N)c(-c3cccs3)c2C#N)cc1 | 90% | – | – | – |
| N#Cc1c(N)nc(Sc2ccc(Cl)cc2)c(C#N)c1-c1cccs1 | – | 8.8% | 0% | EC50 [4]: 3 µM |
| N#Cc1c(N)nc(Sc2ccc(Cl)cc2)c(C#N)c1-c1ccc2c(c1)OCCO2 | 68% | – | – | – |
| N#Cc1c(N)nc(Sc2ccc(Cl)cc2)c(C#N)c1-c1ccc2c(c1)OCO2 | 67% | – | – | – |
| N#Cc1c(N)nc(Sc2cccc(Cl)c2)c(C#N)c1-c1ccc2c(c1)OCCO2 | – | 11.3% | 4.3% | EC50 [4]: 2.5 µM |
| N#Cc1c(N)nc(Sc2cccc(Cl)c2)c(C#N)c1-c1cccc(O)c1 | – | – | – | Activity [5]: Toxic; inhibition at 5 µM [6]: 36% |
| N#Cc1c(N)nc(Sc2cccc(Cl)c2)c(C#N)c1-c1ccc2c(c1)OCO2 | 96% | 78.6% | 10.5% | – |
| N#Cc1c(N)nc(Sc2ccccc2O)c(C#N)c1-c1ccc(Cl)cc1 | 76% | 9.1% | 0% | – |
| COC(=O)c1ccc(-c2c(C#N)c(N)nc(Sc3cccc(Cl)c3)c2C#N)cc1 | – | – | – | inhibition at 5 µM [6]: 46% |
| N#Cc1c(N)nc(Sc2ccc(O)cc2)c(C#N)c1-c1ccc2c(c1)OCO2 | 82% | – | – | – |
| COC(=O)c1cccc(Sc2nc(N)c(C#N)c(-c3cccs3)c2C#N)c1 | 87% | – | – | – |
| COC(=O)c1ccc(Sc2nc(N)c(C#N)c(-c3cccc(O)c3)c2C#N)cc1 | 70% | – | – | – |
| N#Cc1c(N)nc(Sc2cccc(Cl)c2)c(C#N)c1-c1ccco1 | 94% | – | – | – |
| COC(=O)c1cccc(Sc2nc(N)c(C#N)c(-c3ccc(Cl)cc3)c2C#N)c1 | – | 6.2% | 0% | inhibition at 1 µM [7]: 63% |
| COC(=O)c1cccc(Sc2nc(N)c(C#N)c(-c3ccc4c(c3)OCCO4)c2C#N)c1 | – | – | – | inhibition at 0.05 µM [8]: 44% |
| N#Cc1c(N)nc(Sc2ccccc2O)c(C#N)c1-c1cccs1 | 65% | 16.9% | 6.1% | – |
| N#Cc1c(N)nc(Sc2ccc(Cl)cc2)c(C#N)c1-c1cccc(O)c1 | – | 15.7% | 8.9% | EC50 [4]: 3 µM |
| COC(=O)c1ccc(Sc2nc(N)c(C#N)c(-c3ccc4c(c3)OCCO4)c2C#N)cc1 | – | 6% | 0% | inhibition at 0.05 µM [8]: 23% |
| COC(=O)c1cccc(Sc2nc(N)c(C#N)c(-c3cccc(O)c3)c2C#N)c1 | 123% | – | – | – |
| N#Cc1c(N)nc(Sc2ccccc2)c(C#N)c1-c1ccc2c(c1)OCCO2 | 61% | 27.9% | 0% | – |
| N#Cc1c(N)nc(SCc2ccccc2)c(C#N)c1-c1ccc2c(c1)OCCO2 | 94% | – | – | – |
| COC(=O)c1ccc(-c2c(C#N)c(N)nc(Sc3ccc(O)cc3)c2C#N)cc1 | – | – | – | inhibition at 7.5 µM [9]: 45% |
| N#Cc1c(N)nc(SCc2ccccc2)c(C#N)c1-c1cccs1 | 81% | 55.5% | 52.6% | – |

| SMILES | inhibition at 10 µM [1] | RUmax [2] | RUmax [3] | other results |
| --- | --- | --- | --- | --- |
| N#Cc1c(N)nc(Sc2cccc(O)c2)c(C#N)c1-c1cccs1 | 77% | – | – | – |
| N#Cc1c(N)nc(Sc2ccc(O)cc2)c(C#N)c1-c1ccco1 | – | 21.9% | 19.6% | inhibition at 0.05 µM [8]: 24% |
| COC(=O)c1ccc(-c2c(C#N)c(N)nc(SCc3ccccc3)c2C#N)cc1 | 107% | 9.3% | 0% | – |
| N#Cc1c(N)nc(Sc2cccc(O)c2)c(C#N)c1-c1ccc2c(c1)OCCO2 | 86% | – | – | – |
| COC(=O)c1ccc(Sc2nc(N)c(C#N)c(-c3ccc(C(=O)OC)cc3)c2C#N)cc1 | – | – | – | EC50 [4]: 9 µM |
| COC(=O)c1ccc(-c2c(C#N)c(N)nc(Sc3ccc(Cl)cc3)c2C#N)cc1 | 73% | 10.6% | 2.4% | – |
| N#Cc1c(N)nc(Sc2ccc(O)cc2)c(C#N)c1-c1ccc2c(c1)OCCO2 | – | – | – | Activity [10]: Toxic |
| N#Cc1c(N)nc(Sc2ccc(O)cc2)c(C#N)c1-c1cccc(O)c1 | 85% | – | – | – |
| COC(=O)c1ccc(-c2c(C#N)c(N)nc(Sc3cccc(C(=O)OC)c3)c2C#N)cc1 | – | – | – | EC50 [4]: 8 µM |
| N#Cc1c(N)nc(Sc2cccc(O)c2)c(C#N)c1-c1ccc2c(c1)OCO2 | 75% | 250% | 138% | – |
| N#Cc1c(N)nc(SCc2ccccc2)c(C#N)c1-c1ccc(Cl)cc1 | 92% | 8.6% | 0% | – |
| N#Cc1c(N)nc(Sc2cccc(O)c2)c(C#N)c1-c1cccc(O)c1 | – | – | – | Activity [5]: Toxic; inhibition at 5 µM [6]: 36% |
| N#Cc1c(N)nc(Sc2ccc(Cl)cc2)c(C#N)c1-c1ccco1 | 73% | 37% | 44.8% | – |
| N#Cc1c(N)nc(Sc2ccc(O)cc2)c(C#N)c1-c1cccs1 | 86% | – | – | – |
| N#Cc1c(N)nc(Sc2ccccc2)c(C#N)c1-c1ccc2c(c1)OCO2 | 86% | – | – | – |
| COC(=O)c1cccc(Sc2nc(N)c(C#N)c(-c3ccco3)c2C#N)c1 | 69% | 26.9% | 2.2% | – |
| COC(=O)c1ccc(-c2c(C#N)c(N)nc(Sc3cccc(O)c3)c2C#N)cc1 | 77% | 8.4% | 0% | – |
| COC(=O)c1cccc(Sc2nc(N)c(C#N)c(-c3ccc4c(c3)OCO4)c2C#N)c1 | 75% | 156% | 70.4% | – |
| N#Cc1c(N)nc(Sc2cccc(Cl)c2)c(C#N)c1-c1cccs1 | 84% | 124% | 72.2% | – |
| COC(=O)c1ccc(-c2c(C#N)c(N)nc(Sc3ccccc3O)c2C#N)cc1 | 72% | 5.7% | 0% | – |
| N#Cc1c(N)nc(SCc2ccccc2)c(C#N)c1-c1ccco1 | 111% | – | – | – |
| N#Cc1c(N)nc(Sc2ccc(Cl)cc2)c(C#N)c1-c1ccc(Cl)cc1 | 72% | 19.3% | 1.6% | – |
| N#Cc1c(N)nc(Sc2cccc(Cl)c2)c(C#N)c1-c1ccc(Cl)cc1 | 71% | – | – | – |
| COC(=O)c1ccc(Sc2nc(N)c(C#N)c(-c3ccco3)c2C#N)cc1 | 69% | – | – | – |
| N#Cc1c(N)nc(Sc2ccccc2O)c(C#N)c1-c1ccc2c(c1)OCCO2 | 89% | 13.6% | 4.9% | – |
| COC(=O)c1ccc(Sc2nc(N)c(C#N)c(-c3ccc(Cl)cc3)c2C#N)cc1 | – | – | – | Activity [10]: Toxic |
